According to PubChem BioAssay AID1918943 (Molecular Pharmacology Branch, DTP, NCI, 2023):
“And” between values parts separate entries of the source, which are not always exact repeats. Equal entries are not always repeated.

System: 855422-203-R-J1-PDC complex spheroid viability
Experiment: Anticancer human tumor 855422-203-R-J1-PDC patient-derived bladder carcinoma cell line growth inhibition
Conditions: for viability, T/C: stronger effect = lower value
How it was run: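 Drug combinations with the LSD1 inhibitor iadademstat tested on tumor cells co-cultured as spheroids with endothelial cells and mesenchymal stem cells. Concentrations descended in half-log increments from clinical Cmax or 10 microM.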

[1] = curve of first compound, second compound 0.1 µM
[2] = curve of first compound, second compound 0.316 µM
[3] = curve of first compound, second compound 1 µM
[4] = curve of first compound, second compound 3.16 µM
[5] = curve of first compound, second compound 10 µM
[6] = second compound 0.1 µM, first compound 0.00316 µM
[7] = second compound 0.1 µM, first compound 0.01 µM
[8] = second compound 0.1 µM, first compound 0.0316 µM
[9] = second compound 0.1 µM, first compound 0.1 µM
[10] = second compound 0.1 µM, first compound 0.316 µM
[11] = second compound 0.1 µM, first compound 1 µM
[12] = second compound 0.316 µM, first compound 0.00316 µM
[13] = second compound 0.316 µM, first compound 0.01 µM
[14] = second compound 0.316 µM, first compound 0.0316 µM
[15] = second compound 0.316 µM, first compound 0.1 µM
[16] = second compound 0.316 µM, first compound 0.316 µM
[17] = second compound 0.316 µM, first compound 1 µM
[18] = second compound 1 µM, first compound 0.00316 µM
[19] = second compound 1 µM, first compound 0.01 µM
[20] = second compound 1 µM, first compound 0.0316 µM
[21] = second compound 1 µM, first compound 0.1 µM
[22] = second compound 1 µM, first compound 0.316 µM
[23] = second compound 1 µM, first compound 1 µM
[24] = second compound 3.16 µM, first compound 0.00316 µM
[25] = second compound 3.16 µM, first compound 0.01 µM
[26] = second compound 3.16 µM, first compound 0.0316 µM
[27] = second compound 3.16 µM, first compound 0.1 µM
[28] = second compound 3.16 µM, first compound 0.316 µM
[29] = second compound 3.16 µM, first compound 1 µM
[30] = second compound 10 µM, first compound 0.00316 µM
[31] = second compound 10 µM, first compound 0.01 µM
[32] = second compound 10 µM, first compound 0.0316 µM
[33] = second compound 10 µM, first compound 0.1 µM
[34] = second compound 10 µM, first compound 0.316 µM
[35] = second compound 10 µM, first compound 1 µM
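Note: drug exposure lasted 7 days starting on day 3 after seeding.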
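Throughout, for viability, T/C: luminescence viability as percent of DMSO vehicle wells = 100%.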

COc1cc(Nc2ncc3c(n2)-c2ccc(Cl)cc2C(c2c(F)cccc2OC)=NC3)ccc1C(=O)O
viability, T/C (compound 0.00316 µM): 95.3% and 91.3% | viability, T/C (compound 0.01 µM): 96.3% and 104% | viability, T/C (compound 0.0316 µM): 80.6% and 79.7% | viability, T/C (compound 0.1 µM): 79.5% and 71.7% | viability, T/C (compound 0.316 µM): 62.2% and 59.5% | viability, T/C (compound 1 µM): 63.8% and 64.5% | IC50 (curve of compound): > 1000 nM

COc1cc(C2c3cc4c(cc3C(OC3OC5COC(C)OC5C(O)C3O)C3COC(=O)C23)OCO4)cc(OC)c1O (centres undefined)
viability, T/C (compound 0.00949 µM): 88.6% and 97.5% | viability, T/C (compound 0.03 µM): 79.6% and 102% | viability, T/C (compound 0.0949 µM): 61% and 58.4% | viability, T/C (compound 0.3 µM): 28.3% and 31.1% | viability, T/C (compound 0.949 µM): 13.5% and 15.1% | viability, T/C (compound 3 µM): 6.36% and 6.7% | IC50 (curve of compound): 138 nM and 148 nM

O=C(C=Cn1cnc(-c2cc(C(F)(F)F)cc(C(F)(F)F)c2)n1)NNc1cnccn1
viability, T/C (compound 0.00316 µM): 124% and 114% | viability, T/C (compound 0.01 µM): 125% and 86.4% | viability, T/C (compound 0.0316 µM): 52.5% and 44.8% | viability, T/C (compound 0.1 µM): 43.6% and 32.7% | viability, T/C (compound 0.316 µM): 38.7% and 27.1% | viability, T/C (compound 1 µM): 25% and 18.6% | IC50 (curve of compound): 37.5 nM and 29.4 nM

Nc1ccccc1NC(=O)c1ccc(CNC(=O)OCc2cccnc2)cc1 + NC1CC1c1ccc(-c2cccc(O)c2)cc1
IC50 [1]: 1220 nM | IC50 [2]: 1300 nM | IC50 [3]: 1070 nM | IC50 [4]: 993 nM | IC50 [5]: 1030 nM | viability, T/C (second compound 0.1 µM, first compound 0.00949 µM): 90.3% | viability, T/C (second compound 0.1 µM, first compound 0.03 µM): 91.2% | viability, T/C (second compound 0.1 µM, first compound 0.0949 µM): 98.5% | viability, T/C (second compound 0.1 µM, first compound 0.3 µM): 97.8% | viability, T/C (second compound 0.1 µM, first compound 0.949 µM): 60.8% | viability, T/C (second compound 0.1 µM, first compound 3 µM): 11.8% | viability, T/C (second compound 0.316 µM, first compound 0.00949 µM): 95.3% | viability, T/C (second compound 0.316 µM, first compound 0.03 µM): 92.6% | viability, T/C (second compound 0.316 µM, first compound 0.0949 µM): 104% | viability, T/C (second compound 0.316 µM, first compound 0.3 µM): 96.4% | viability, T/C (second compound 0.316 µM, first compound 0.949 µM): 65.9% | viability, T/C (second compound 0.316 µM, first compound 3 µM): 7.62% | viability, T/C (second compound 1 µM, first compound 0.00949 µM): 89.4% | viability, T/C (second compound 1 µM, first compound 0.03 µM): 90.4% | viability, T/C (second compound 1 µM, first compound 0.0949 µM): 85.9% | viability, T/C (second compound 1 µM, first compound 0.3 µM): 82.8% | viability, T/C (second compound 1 µM, first compound 0.949 µM): 54.7% | viability, T/C (second compound 1 µM, first compound 3 µM): 6.8% | viability, T/C (second compound 3.16 µM, first compound 0.00949 µM): 87.9% | viability, T/C (second compound 3.16 µM, first compound 0.03 µM): 86.6% | viability, T/C (second compound 3.16 µM, first compound 0.0949 µM): 91% | viability, T/C (second compound 3.16 µM, first compound 0.3 µM): 90.2% | viability, T/C (second compound 3.16 µM, first compound 0.949 µM): 51.9% | viability, T/C (second compound 3.16 µM, first compound 3 µM): 5.73% | viability, T/C (second compound 10 µM, first compound 0.00949 µM): 98.7% | viability, T/C (second compound 10 µM, first compound 0.03 µM): 91.3% | viability, T/C (second compound 10 µM, first compound 0.0949 µM): 91.1% | viability, T/C (second compound 10 µM, first compound 0.3 µM): 87.4% | viability, T/C (second compound 10 µM, first compound 0.949 µM): 53.5% | viability, T/C (second compound 10 µM, first compound 3 µM): 2.03%

O=C(C=Cn1cnc(-c2cc(C(F)(F)F)cc(C(F)(F)F)c2)n1)NNc1cnccn1 + NC1CC1c1ccc(-c2cccc(O)c2)cc1
IC50 [1]: 27.8 nM | IC50 [2]: 25.3 nM | IC50 [3]: 23.9 nM | IC50 [4]: 21.4 nM | IC50 [5]: 23.2 nM | viability, T/C [6]: 133% | viability, T/C [7]: 75.4% | viability, T/C [8]: 44.4% | viability, T/C [9]: 35.1% | viability, T/C [10]: 27.6% | viability, T/C [11]: 16.2% | viability, T/C [12]: 121% | viability, T/C [13]: 75% | viability, T/C [14]: 40.5% | viability, T/C [15]: 32.6% | viability, T/C [16]: 28.2% | viability, T/C [17]: 17.7% | viability, T/C [18]: 121% | viability, T/C [19]: 71.1% | viability, T/C [20]: 38.9% | viability, T/C [21]: 34.8% | viability, T/C [22]: 29.3% | viability, T/C [23]: 16.8% | viability, T/C [24]: 112% | viability, T/C [25]: 68.3% | viability, T/C [26]: 36.8% | viability, T/C [27]: 33.5% | viability, T/C [28]: 26.6% | viability, T/C [29]: 18.9% | viability, T/C [30]: 97.8% | viability, T/C [31]: 70.3% | viability, T/C [32]: 39.7% | viability, T/C [33]: 33.3% | viability, T/C [34]: 31% | viability, T/C [35]: 20.1%

O=C(c1cc(Cc2n[nH]c(=O)c3ccccc23)ccc1F)N1CCN(C(=O)C2CC2)CC1 + NC1CCC(NC2CC2c2ccccc2)CC1
IC50 [1]: > 10000 nM | IC50 [2]: > 10000 nM | IC50 [3]: > 10000 nM | IC50 [4]: > 10000 nM | IC50 [5]: > 10000 nM | viability, T/C [8]: 89.1% | viability, T/C [9]: 97.5% | viability, T/C [10]: 83.5% | viability, T/C [11]: 83.2% | viability, T/C (second compound 0.1 µM, first compound 3.16 µM): 84.6% | viability, T/C (second compound 0.1 µM, first compound 10 µM): 72.3% | viability, T/C [14]: 98.7% | viability, T/C [15]: 90.8% | viability, T/C [16]: 83.4% | viability, T/C [17]: 84.6% | viability, T/C (second compound 0.316 µM, first compound 3.16 µM): 82.1% | viability, T/C (second compound 0.316 µM, first compound 10 µM): 73.8% | viability, T/C [20]: 94.2% | viability, T/C [21]: 87.3% | viability, T/C [22]: 87.7% | viability, T/C [23]: 93% | viability, T/C (second compound 1 µM, first compound 3.16 µM): 88.1% | viability, T/C (second compound 1 µM, first compound 10 µM): 79.5% | viability, T/C [26]: 89.5% | viability, T/C [27]: 89.8% | viability, T/C [28]: 92% | viability, T/C [29]: 87.7% | viability, T/C (second compound 3.16 µM, first compound 3.16 µM): 79.8% | viability, T/C (second compound 3.16 µM, first compound 10 µM): 76.1% | viability, T/C [32]: 83.3% | viability, T/C [33]: 81.9% | viability, T/C [34]: 86.4% | viability, T/C [35]: 82.6% | viability, T/C (second compound 10 µM, first compound 3.16 µM): 80.8% | viability, T/C (second compound 10 µM, first compound 10 µM): 72.7%

Nc1ncn(C2CC(O)C(CO)O2)c(=O)n1 (centres undefined)
viability, T/C (compound 0.00316 µM): 101% and 96.5% | viability, T/C (compound 0.01 µM): 92.3% and 88.8% | viability, T/C (compound 0.0316 µM): 81.1% and 89% | viability, T/C (compound 0.1 µM): 86.6% and 94% | viability, T/C (compound 0.316 µM): 80.8% and 94.5% | viability, T/C (compound 1 µM): 78% and 87% | IC50 (curve of compound): > 1000 nM

CC(C)CC(NC(=O)C(Cc1ccccc1)NC(=O)c1cnccn1)B(O)O (centres undefined) + NC1CC1c1ccc(-c2cccc(O)c2)cc1
IC50 [1]: 0.641 nM | IC50 [2]: 0.627 nM | IC50 [3]: 0.61 nM | IC50 [4]: 0.603 nM | IC50 [5]: 0.578 nM | viability, T/C (second compound 0.1 µM, first compound 0.000316 µM): 127% | viability, T/C (second compound 0.1 µM, first compound 0.001 µM): 1.42% | viability, T/C [6]: 0.04% | viability, T/C [7]: 0.01% | viability, T/C [8]: 0.03% | viability, T/C [9]: 0.14% | viability, T/C (second compound 0.316 µM, first compound 0.000316 µM): 122% | viability, T/C (second compound 0.316 µM, first compound 0.001 µM): 1.03% | viability, T/C [12]: 0.02% | viability, T/C [13]: 0.01% | viability, T/C [14]: 0.02% | viability, T/C [15]: 0.11% | viability, T/C (second compound 1 µM, first compound 0.000316 µM): 115% | viability, T/C (second compound 1 µM, first compound 0.001 µM): 0.89% | viability, T/C [18]: 0.02% | viability, T/C [19]: 0.01% | viability, T/C [20]: 0.02% | viability, T/C [21]: 0.12% | viability, T/C (second compound 3.16 µM, first compound 0.000316 µM): 113% | viability, T/C (second compound 3.16 µM, first compound 0.001 µM): 0.68% | viability, T/C [24]: 0.03% | viability, T/C [25]: 0.02% | viability, T/C [26]: 0.03% | viability, T/C [27]: 0.12% | viability, T/C (second compound 10 µM, first compound 0.000316 µM): 105% | viability, T/C (second compound 10 µM, first compound 0.001 µM): 0.52% | viability, T/C [30]: 0.15% | viability, T/C [31]: 0.14% | viability, T/C [32]: 0.13% | viability, T/C [33]: 0.19%

NC1CCC(NC2CC2c2ccccc2)CC1 (centres undefined)
viability, T/C (compound 0.1 µM): 89.9% [middle of 25 runs] | viability, T/C (compound 0.316 µM): 96.7% and 90.2% | viability, T/C (compound 1 µM): 86.6% [middle of 25 runs] | viability, T/C (compound 3.16 µM): 87.7% [middle of 25 runs] | viability, T/C (compound 10 µM): 78.7% [middle of 23 runs] | IC50 (compound alone, run of 11/29/2021): > 10000 nM
